Assay results published in patent publication US12077503B2, “Substituted cyclic amides and their use as herbicides” (FMC CORPORATION, priority 2015, dated 2024).

Key:
Format in all cases: in vivo
Kochia (Kochia scoparia) [1] = test: Test A preemergence; details: Bassia scoparia, pre-emergence, 240 h
In short: (§1)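 Preemergence soil spray on seeded pots or post-emergence spray on 1–2 leaf plants, in loam–sand blend. Greenhouse ~10 d. Visual rating 0–100 against untreated plants.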

[2] = system: barnyardgrass (Echinochloa crus-galli); test: Test A preemergence; details: Echinochloa crus-galli, pre-emergence, 240 h
In short: as §1

[3] = system: giant foxtail (Setaria faberii); test: Test A preemergence; details: Setaria faberi, pre-emergence, 240 h
In short: as §1

[4] = system: pigweed (Amaranthus retroflexus); test: Test A preemergence; details: Amaranthus retroflexus, pre-emergence, 240 h
[5] = system: ragweed (common ragweed, Ambrosia elatior); test: Test A preemergence; details: Ambrosia artemisiifolia, pre-emergence, 240 h
In short: as §1

[6] = system: ryegrass, Italian (Italian ryegrass, Lolium multiflorum); test: Test A preemergence; details: Lolium multiflorum, pre-emergence, 240 h
In short: as §1

[7] = system: Galium (catchweed bedstraw, Galium aparine); test: Test A postemergence; details: Galium, post-emergence, 240 h, 125 g ai/ha, Postemergence; visual injury after approximately 10 d; 0 to 100 scale where 0 is no effect and 100 is complete control; read-out: Plant response rating, Galium
In short: as §1

Kochia (Kochia scoparia) [8] = test: Test A postemergence; details: Bassia scoparia, post-emergence, 240 h, 125 g ai/ha, Postemergence; visual injury after approximately 10 d; 0 to 100 scale where 0 is no effect and 100 is complete control; read-out: Plant response rating, Kochia
In short: as §1

[9] = system: barnyardgrass (Echinochloa crus-galli); test: Test A postemergence; details: Echinochloa crus-galli, post-emergence, 240 h, 125 g ai/ha, Postemergence; visual injury after approximately 10 d; 0 to 100 scale where 0 is no effect and 100 is complete control; read-out: Plant response rating, Barnyardgrass
In short: as §1

[10] = system: blackgrass (Alopecurus myosuroides); test: Test A postemergence; details: Alopecurus myosuroides, post-emergence, 240 h, 125 g ai/ha, Postemergence; visual injury after approximately 10 d; 0 to 100 scale where 0 is no effect and 100 is complete control; read-out: Plant response rating, Blackgrass
In short: as §1

corn (Zea mays) = test: Test A postemergence; details: Zea mays, post-emergence, 240 h, 125 g ai/ha, Postemergence; visual injury after approximately 10 d; 0 to 100 scale where 0 is no effect and 100 is complete control
In short: as §1

[11] = system: giant foxtail (Setaria faberii); test: Test A postemergence; details: Setaria faberi, post-emergence, 240 h, 125 g ai/ha, Postemergence; visual injury after approximately 10 d; 0 to 100 scale where 0 is no effect and 100 is complete control; read-out: Plant response rating, Foxtail, Giant
In short: as §1

[12] = system: pigweed (Amaranthus retroflexus); test: Test A postemergence; details: Amaranthus retroflexus, post-emergence, 240 h, 125 g ai/ha, Postemergence; visual injury after approximately 10 d; 0 to 100 scale where 0 is no effect and 100 is complete control; read-out: Plant response rating, Pigweed
In short: as §1

[13] = system: ragweed (common ragweed, Ambrosia elatior); test: Test A postemergence; details: Ambrosia artemisiifolia, post-emergence, 240 h, 125 g ai/ha, Postemergence; visual injury after approximately 10 d; 0 to 100 scale where 0 is no effect and 100 is complete control; read-out: Plant response rating, Ragweed
In short: as §1

[14] = system: ryegrass, Italian (Italian ryegrass, Lolium multiflorum); test: Test A postemergence; details: Lolium multiflorum, post-emergence, 240 h, 125 g ai/ha, Postemergence; visual injury after approximately 10 d; 0 to 100 scale where 0 is no effect and 100 is complete control; read-out: Plant response rating, Ryegrass, Italian
In short: as §1

[15] = system: wheat (Triticum aestivum); test: Test A postemergence; details: Triticum aestivum, post-emergence, 240 h, 125 g ai/ha, Postemergence; visual injury after approximately 10 d; 0 to 100 scale where 0 is no effect and 100 is complete control; read-out: Plant response rating, Wheat
In short: as §1

[16] = system: barnyardgrass (Echinochloa crus-galli); test: Test B flooded paddy test; details: Echinochloa crus-galli, Flood, 250 g ai/ha; scale of 0 to 100 where 0 is no effect and 100 is complete control; read-out: Barnyardgrass plant response rating
In short: (§2)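 Response scored visually against untreated controls, 0 = no effect and 100 = complete control, 13–15 d after treatment in the greenhouse. Compounds added to paddy water held 3 cm above soil surface. Treatment given at 2-leaf stage.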

[17] = system: ducksalad (Heteranthera limosa); test: Test B flooded paddy test; details: Heteranthera limosa, Flood, 250 g ai/ha; scale of 0 to 100 where 0 is no effect and 100 is complete control; read-out: Ducksalad plant response rating
In short: as §2

rice (Oryra sativa) = test: Test B flooded paddy test; details: Oryza sativa, Flood, 250 g ai/ha; scale of 0 to 100 where 0 is no effect and 100 is complete control; read-out: Rice plant response rating
In short: as §2

[18] = system: sedge, umbrella (small-flower umbrella sedge, Cyperus difformis); test: Test B flooded paddy test; details: Cyperus difformis, Flood, 250 g ai/ha; scale of 0 to 100 where 0 is no effect and 100 is complete control; read-out: Sedge, Umbrella plant response rating
In short: as §2

CC(C)COc1cccc([C@H]2CNC(=O)[C@@H]2C(=O)Nc2ccccc2F)c1 [Compound 964]
30%: pest or weed control at 500 g/ha ([6]; 500 g ai/ha, preemergence, visual injury rating about 10 d after treatment, 0 to 100 scale (0 no effect, 100 complete control), read-out: Ryegrass, Italian plant response rating)
0%: pest or weed control at 125 g/ha (Kochia (Kochia scoparia) [1]; 125 g ai/ha, Preemergence, visual injury rating after approximately 10 d, read-out: Kochia plant response rating (0 to 100 scale, 0 is no effect, 100 is complete control)) | pest or weed control at 125 g/ha ([4]; 125 g ai/ha, Preemergence, visual injury rating after approximately 10 d, read-out: Pigweed plant response rating (0 to 100 scale, 0 is no effect, 100 is complete control)) | pest or weed control at 500 g/ha ([4]; 500 g ai/ha, preemergence, visual injury rating about 10 d after treatment, 0 to 100 scale (0 no effect, 100 complete control), read-out: Pigweed plant response rating) | pest or weed control at 125 g/ha ([5]; 125 g ai/ha, Preemergence, visual injury rating after approximately 10 d, read-out: Ragweed plant response rating (0 to 100 scale, 0 is no effect, 100 is complete control)) | pest or weed control at 500 g/ha ([5]; 500 g ai/ha, preemergence, visual injury rating about 10 d after treatment, 0 to 100 scale (0 no effect, 100 complete control), read-out: Ragweed plant response rating) | pest or weed control at 125 g/ha ([6]; 125 g ai/ha, Preemergence, visual injury rating after approximately 10 d, read-out: Ryegrass, Italian plant response rating (0 to 100 scale, 0 is no effect, 100 is complete control)) | pest or weed control at 125 g/ha (Kochia (Kochia scoparia) [8]) | pest or weed control at 125 g/ha [10] | Corn plant response rating (crop injury, 0 = no effect, 100 = complete kill) at 125 g/ha (corn (Zea mays)) | pest or weed control at 125 g/ha [12] | pest or weed control at 125 g/ha [13] | pest or weed control at 125 g/ha [14] | plant injury at 125 g/ha [15] | pest or weed control at 250 g/ha [16] | pest or weed control at 250 g/ha [18]
20%: pest or weed control at 500 g/ha (Kochia (Kochia scoparia) [1]; 500 g ai/ha, preemergence, visual injury rating about 10 d after treatment, 0 to 100 scale (0 no effect, 100 complete control), read-out: Kochia plant response rating)
40%: pest or weed control at 125 g/ha [7]
90%: pest or weed control at 125 g/ha ([2]; 125 g ai/ha, Preemergence, visual injury rating after approximately 10 d, read-out: Barnyardgrass plant response rating (0 to 100 scale, 0 is no effect, 100 is complete control)) | pest or weed control at 500 g/ha ([2]; 500 g ai/ha, preemergence, visual injury rating about 10 d after treatment, 0 to 100 scale (0 no effect, 100 complete control), read-out: Barnyardgrass plant response rating) | pest or weed control at 125 g/ha ([3]; 125 g ai/ha, Preemergence, visual injury rating after approximately 10 d, read-out: Foxtail, Giant plant response rating (0 to 100 scale, 0 is no effect, 100 is complete control)) | pest or weed control at 500 g/ha ([3]; 500 g ai/ha, preemergence, visual injury rating about 10 d after treatment, 0 to 100 scale (0 no effect, 100 complete control), read-out: Foxtail, Giant plant response rating)
60%: pest or weed control at 125 g/ha [9] | pest or weed control at 125 g/ha [11]
75%: pest or weed control at 250 g/ha [17]
15%: pest or weed control at 250 g/ha (rice (Oryra sativa))
